The source of these data is article PMC10744248, “Unsymmetrical Pd(II) Pincer Complexes with Benzothiazole and Thiocarbamate Flanking Units: Expedient Solvent-Free Synthesis and Anticancer Potential” (International Journal of Molecular Sciences, 2023).

One data set relates to human cell lines. The data set is described as follows: MTT cytotoxicity assay, cell line panel (line not specified). It counts as cell-based. The following applies: at a concentration as high as 60 μM. As for the experimental part: (§1) To estimate the anticancer potential of palladacycles 2a,b, their ability to inhibit cell growth in different solid and blood cancer cell lines was determined using the conventional MTT assay. […] This underscores the importance of a more labile pincer-type coordination that can be achieved not only by the introduction of two different donor centers (like hard nitrogen and soft sulfur atoms) but also via elongating one of the side arms (like in the considered thiophosphoryloxy and thiocarbamate derivatives). In turn, the stability of a pincer-type framework of complex 2b, used as a representative example, in neat DMSO, DMSO–water, and DMSO–PBS mixtures for 2 days was confirmed by the results of UV-vis spectroscopic studies (for the corresponding spectra, see Figures S33–S35 in the SI).
However, in certain cases, the selectivity indices approached and even exceeded 10.0. Of particular note is the same level of cytotoxicity of both benzothiazole–thiocarbamate complexes against parental cell lines and doxorubicin-resistant clones of non-cancerous mammary epithelial cells (HBL100 and HBL100/Dox) and, more importantly, chronic myelogenous leukemia cells K562 and K562/iS9. […]

In data set [1] the test system is human colorectal carcinoma (HCT116) cells. The data set is described as follows: MTT cytotoxicity assay, HCT116. The following applies: for IC50: HCT116, MTT assay. It counts as cell-based. As for the experimental part: (§2) To estimate the anticancer potential of palladacycles 2a,b, their ability to inhibit cell growth in different solid and blood cancer cell lines was determined using the conventional MTT assay.
(§3) The cytotoxicities of ligand 1b and Pd(II) pincer complexes 2a,b, V, and VI (X = O) were studied on human colorectal carcinoma (HCT116), breast cancer (MCF7), prostate adenocarcinoma (PC3), chronic myelogenous leukemia (K562 and K562/iS9), multiple plasmacytoma (AMO1), and acute lymphoblastic leukemia (H9) cell lines, as well as human embryonic kidney (HEK293) and mammary epithelial (HBL100 and HBL100/Dox) cells used as representatives of non-cancerous cell lines. All the cell lines were obtained from American Type Culture Collection (ATCC). The tested compounds were initially dissolved in DMSO. […] The detailed procedure is described in Ref. [52].
Background: Tetrazolium assays rely on reduction of a dye to a coloured formazan, in cell work by metabolically active cells.

For data set [2], the system named is breast cancer (MCF7) cells. The data set is described as follows: MTT cytotoxicity assay, MCF7. It counts as cell-based, human. As to conditions: for IC50: MCF7, MTT assay. As for the experimental part: as §2, §3
For data set [3], the system named is prostate adenocarcinoma (PC3) cells. The data set is described as follows: MTT cytotoxicity assay, PC3. It counts as cell-based, human. The following applies: for IC50: PC3, MTT assay. As for the experimental part: as §2, §3
Data set [4] has as its system chronic myelogenous leukemia K562 cells. The data set is described as follows: MTT cytotoxicity assay, K562. It is filed as cell-based, human. As for the experimental part: as §2, §3
For data set [5], the system named is doxorubicin-resistant chronic myelogenous leukemia K562/iS9 cells. The data set is described as follows: MTT cytotoxicity assay, K562/iS9. It is filed as cell-based, human. As for the experimental part:
as §1
(§4) However, in certain cases, the selectivity indices approached and even exceeded 10.0. Of particular note is the same level of cytotoxicity of both benzothiazole–thiocarbamate complexes against parental cell lines and doxorubicin-resistant clones of non-cancerous mammary epithelial cells (HBL100 and HBL100/Dox) and, more importantly, chronic myelogenous leukemia cells K562 and K562/iS9. The additional investigations by flow cytometry performed on K562 and K562/iS9 cancer cells treated with complex 2a using the Annexin V-FITC/PI double staining assay confirmed its ability to […] (Figure 4), increasing the populations of early (lower right quadrants) and late (upper right quadrants) apoptotic cells in both parental and resistant lines. These findings argue for the possibility of creating new promising anticancer agents based on the related cyclopalladated derivatives that could potentially evade drug resistance of cancer cells.
(§5) The cytotoxicities of ligand 1b and Pd(II) pincer complexes 2a,b, V, and VI (X = O) were studied on human colorectal carcinoma (HCT116), breast cancer (MCF7), prostate adenocarcinoma (PC3), chronic myelogenous leukemia (K562 and K562/iS9), multiple plasmacytoma (AMO1), and acute lymphoblastic leukemia (H9) cell lines, as well as human embryonic kidney (HEK293) and mammary epithelial (HBL100 and HBL100/Dox) cells used as representatives of non-cancerous cell lines. All the cell lines were obtained from American Type Culture Collection (ATCC). The tested compounds were initially dissolved in DMSO. Cisplatin (in the initial form of an infusion concentrate in natural saline solution) from a commercial source was used as a positive control. The detailed procedure is described in Ref. [52].

In data set [6] the test system is multiple plasmacytoma (AMO1) cells. The data set is described as follows: MTT cytotoxicity assay, AMO1. It counts as cell-based, human. As for the experimental part: as §2, §3
Data set [7] has as its system acute lymphoblastic leukemia (H9) cells. The data set is described as follows: MTT cytotoxicity assay, H9. It is filed as cell-based, human. As for the experimental part: as §2, §3
For data set [8], the system named is human embryonic kidney (HEK293) cells. The data set is described as follows: MTT cytotoxicity assay, HEK293. It is filed as cell-based. As to conditions: HEK293 (non-cancerous). As for the experimental part:
as §2, §3

In data set [9] the test system is mammary epithelial HBL100 cells. The data set is described as follows: MTT cytotoxicity assay, HBL100. It is filed as cell-based, human. As to conditions: HBL100 (non-cancerous). As for the experimental part: as §2, §3
The subject of data set [10] is doxorubicin-resistant mammary epithelial HBL100/Dox cells. The data set is described as follows: MTT cytotoxicity assay, HBL100/Dox. It is filed as cell-based, human. The following applies: HBL100/dox (non-cancerous, doxorubicin-resistant). As for the experimental part:
as §1, §4, §5

Data set [11] is described as follows: Stability by UV-vis spectroscopy. It is filed as physicochemical. As for the experimental part: as §1
The UV–vis spectra were registered on a Cary50 spectrometer in quartz cells with 10 mm path length (Figures S33–S35 in the SI).
Figure S33. […]
DMSO–PBS (1:1) registered immediately after dissolution (a) , in one ( b) or two (c) days Note: a reduction in the absorbance in the case of the DMSO–PBS (1:1) solution in time is connected […]
To confirm its identity, the resulting precipitate was collected by filtration, dried in air, dissolved in neat DMSO, and immediately analyzed by UV-Vis spectroscopy (see Fig. S35). […]

On to `CCN(CC)C(=S)Oc1cccc(-c2nc3ccccc3s2)c1` [1b, O-[3-(Benzo[d]thiazol-2-yl)phenyl] Diethylthiocarbamate], for which the cytotoxicity entry in the data set with human cell lines is recorded as “nontoxic”.
One may read the IC50 as the midpoint of a concentration-inhibition curve. Read a high IC50 as weaker potency. Consider `CN(C)C1=[S+][Pd-2]2([Cl])[c]3c(cccc3-c3sc4ccccc4[n+]32)O1` (centres unmarked) [2a], for which the IC50 worked out at 1.3 ± 0.2 µM in data set [1]; 3.3 ± 0.4 µM in data set [2]; 1.1 ± 0.3 µM in data set [3]; 0.9 ± 0.2 µM in [4]; 0.9 ± 0.1 µM in data set [5]; 0.3 ± 0.1 µM in data set [6]. Moreover, the IC50 in [7] was determined as 1.3 ± 0.1 µM; in data set [8], 2.5 ± 0.2 µM; in [9] it was 3.2 ± 0.5 µM; in data set [10], 4.4 ± 0.8 µM.
In the case of `CCN(CC)C1=[S+][Pd-2]2([Cl])[c]3c(cccc3-c3sc4ccccc4[n+]32)O1` (centres unmarked) [2b], the IC50 turned out to be 12.7 ± 1.5 µM in data set [1]; 13.5 ± 2.1 µM in data set [2]; 8.5 ± 2.5 µM in data set [3]; 2.9 ± 0.4 µM in [4]; 2.6 ± 0.8 µM in [5]; 4.4 ± 0.8 µM in data set [6]. Moreover, the IC50 in [7] was found to be 2.1 ± 0.9 µM; in [8] it was 9.5 ± 0.7 µM; in [9] it was 10.2 ± 3.3 µM; in data set [10] it was 16.3 ± 3.8 µM. Also, the “behaviour in DMSO–PBS (1:1) solution in time (reduction in absorbance)” value in data set [11] (DMSO–PBS (1:1), up to 2 days) was “gradual precipitation”. For the same molecule, the “stability of the pincer-type framework” value in [11] (neat DMSO, DMSO–water and DMSO–PBS mixtures (1:1), 2 days) is recorded as “confirmed”.
As for `N.N.[Cl][Pt][Cl]` [Cisplatin, reference compound], the IC50 came out at 16 ± 2 µM in data set [5] and 23.6 ± 3.6 µM in [10].
In the case of `[Cl][Pd-2]12[S+]=P(c3ccccc3)(c3ccccc3)c3cccc([c]31)-c1sc3ccccc3[n+]12` (centres unmarked) [V, reference compound], the “percentage of living cells” value was “over 60%” in data set [1] (HCT116, at a concentration of 80 μM); “over 60%” in data set [2] (MCF7, at a concentration of 80 μM); “over 60%” in data set [3] (PC3, at a concentration of 80 μM).
On to `[Cl][Pd-2]12[S+]=P(c3ccccc3)(c3ccccc3)Oc3cccc([c]31)-c1sc3ccccc3[n+]12` (centres unmarked) [VI (X = O), reference compound], for which the IC50 in data set [1] is 10.3 ± 0.8 µM; in data set [2] it was 17 ± 0.5 µM; in [3], 6.6 ± 0.6 µM; in data set [4], 1.9 ± 0.3 µM; in data set [5] it was 2.5 ± 0.4 µM; in data set [6], 3.4 ± 0.5 µM. The half-maximal inhibitory concentration (IC50) stood at 1.7 ± 0.3 µM in [7], 13 ± 0.5 µM in data set [8], 9.4 ± 0.9 µM in data set [9] and 28.6 ± 3.8 µM in data set [10].
